Test results: patent US20110195402A1, “SYSTEMS AND METHODS FOR DETECTING DRUG USE” (priority 2010, published 2011)
“And” between values parts separate entries of the source, which are not always exact repeats. Identical values can stand only once.

T1: α-amylase (Homo sapiens, UniProt P0DUB6)
T1 sequence (P0DUB6 16-511): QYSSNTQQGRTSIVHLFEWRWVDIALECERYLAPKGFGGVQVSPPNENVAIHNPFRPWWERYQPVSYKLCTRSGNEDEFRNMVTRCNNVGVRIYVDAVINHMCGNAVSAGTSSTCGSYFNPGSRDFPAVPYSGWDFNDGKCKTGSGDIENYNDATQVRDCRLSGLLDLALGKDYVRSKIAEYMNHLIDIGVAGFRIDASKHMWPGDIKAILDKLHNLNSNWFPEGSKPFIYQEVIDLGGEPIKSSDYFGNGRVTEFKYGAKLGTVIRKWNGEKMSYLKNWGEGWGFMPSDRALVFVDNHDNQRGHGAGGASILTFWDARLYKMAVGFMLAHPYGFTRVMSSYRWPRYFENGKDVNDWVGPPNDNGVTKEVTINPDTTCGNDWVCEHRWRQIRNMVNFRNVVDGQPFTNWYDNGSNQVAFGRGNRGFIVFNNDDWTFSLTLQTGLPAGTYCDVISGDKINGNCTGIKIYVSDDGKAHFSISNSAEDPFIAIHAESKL

T2: lysozyme (Homo sapiens, UniProt P61626)
T2 sequence (P61626 19-148): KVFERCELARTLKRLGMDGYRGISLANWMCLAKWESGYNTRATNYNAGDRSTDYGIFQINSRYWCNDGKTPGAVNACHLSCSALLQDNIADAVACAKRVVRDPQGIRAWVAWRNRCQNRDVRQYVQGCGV

B1: Soybeans: primary soybean protease inhibitor, 20.7-22.3 kDa (protein, UniProt P01070 25-205, looked up)
Trypsin inhibitor A: DFVLDNEGNPLENGGTYYILSDITAFGGIRAAPTGNERCPLTVVQSRNELDKGIGTIISSPYRIRFIAEGHPLSLKFDSFAVIMLCVGIPTEWSVVEDLPEGPAVKIGENKDAMDGWFRLERVSDDEFNNYKLVFCPQQAEDDKCGDIGISIDHDDGTRRLVVSKNKPLVVQFQKLDKESL

Experiments:
peroxidase = test: Peroxidase assay in saliva (Amplex Red); format: biochemical; settings: test compound at 500 ppm, pooled or unpooled saliva, 30 minutes; FIGS. 26-29
Protocol: To determine the effect of various GRAS compounds as inhibitors of peroxidase activity, a standard assay using Amplex® Red (Life Technologies), which releases a fluorescent oxidation product.
The test compounds, such as GRAS materials or cocktails of same, were prepared at a concentration of 500 ppm in distilled water. For the assay, 50 μl samples of test compounds were mixed with 20-30 μl of saliva (either “pooled” or “unpooled”) prior to the addition of Amplex® Red. […] Reactions were allowed to run for 30 minutes during these assays.

α-amylase = target: T1, α-amylase; test: α-Amylase inhibition saliva screening (2-chloro-p-nitrophenol-maltotriose substrate, 405 nm); format: biochemical; settings: for Ave (reading, absorbance at 405 nm) / reading (absorbance at 405 nm), single replicates: test compound prepared at 5,000 ppm, 37° C., control column '100% Saliva'; for inhibition of α-Amylase: 100% saliva samples, FIG. 11; for α-Amylase Inhibitor Activity: dilute (3.5%) saliva, FIG. 10
Excerpt: Further details of these five compounds may also be seen in Table 4.

lysozyme = target: T2, lysozyme; test: Lysozyme inhibition saliva screening (fluorescein-labeled Micrococcus lysodeikticus); format: biochemical; settings: 100% saliva samples (data not shown)
Excerpt: Further details of these five compounds may also be seen in Table 5.

protease = settings: natural protease inhibitor; Table II; cited from earlier work

| Molecule | peroxidase inhibition (peroxidase) | Ave (reading, absorbance at 405 nm) (α-amylase; 0 min) | inhibition of α-Amylase (α-amylase) | Ave (reading, absorbance at 405 nm) (α-amylase; 5 min) | Ave (reading, absorbance at 405 nm) (α-amylase; 15 min) | α-Amylase Inhibitor Activity (α-amylase) | also measured |
| --- | --- | --- | --- | --- | --- | --- | --- |
| Cn1c(=O)c2c(ncn2C)n(C)c1=O [CDI-33, Caffeine] | significant peroxidase inhibition capabilities | – | – | – | – | – | – |
| Aluminum sulfate hydrate [CDI-34] | – | 0.40 | inhibit α-Amylase | 0.50 | 0.56 | α-Amylase Inhibitor Activity | reading (absorbance at 405 nm), single replicates (α-amylase; 0 min, sulfate hydrate): 0.40 (2×) and 0.36 and 0.45; reading (absorbance at 405 nm), single replicates (α-amylase; 5 min, sulfate hydrate): 0.49 and 0.50 (2×) and 0.52; reading (absorbance at 405 nm), single replicates (α-amylase; 15 min, sulfate hydrate): 0.53 and 0.61 and 0.54 and 0.56 |
| COc1ccc(O)c(C(C)(C)C)c1 [CDI-39, 3-tert--butyl-hydroxyanisole] | significant peroxidase inhibition capabilities | – | – | – | – | – | – |
| Aluminum potassium sulfate dodecahydrate [CDI-42] | significant peroxidase inhibition capabilities | 0.92 | inhibit α-Amylase | 1.85 | 2.29 | α-Amylase Inhibitor Activity | reading (absorbance at 405 nm), single replicates (α-amylase; 0 min): 0.80 and 1.13 and 0.90 and 0.84; reading (absorbance at 405 nm), single replicates (α-amylase; 5 min): 1.65 and 2.15 and 1.80 and 1.81; reading (absorbance at 405 nm), single replicates (α-amylase; 15 min): 2.37 and 2.38 and 2.25 and 2.17 |
| O=C(O)c1ccccc1 [CDI-40, Benzoic acid] | – | – | – | – | – | – | inhibition of Lysozyme (lysozyme): inhibit Lysozyme |
| B1 | – | – | – | – | – | – | Inhibitory power (protease): 1.2 times times weight |
